The source of these data is patent publication US9718819B2 (Merck Sharp & Dohme Corp., priority 2012, dated 2017).

As usually defined, the IC50 is the concentration needed to halve the response being measured.

The target of this test is HIV-1 RT wild-type enzyme (Human immunodeficiency virus type 1 group M subtype B (isolate HXB2) (HIV-1), UniProt P04585). Nature of the test: HIV-1 reverse transcriptase inhibitory activity (RT polymerase assay). It counts as biochemical. As to conditions: HIV-1 RT wild-type enzyme 83 pM; RNA-dependent DNA polymerase activity; read-out: IC50. An outline of the steps: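 Enzyme and compound were preincubated 30 min at room temperature, then RNA/DNA hybrid (16.6 nM final; HCV-derived RNA, biotinylated primer) plus 2 μM dNTPs and 66.6 nM Ru-dUTP added, 90 min at 37 °C. Avidin capture and ECL counting; percent inhibition relative to DMSO (0%) and 1 μM efavirenz (100%), four-parameter IC50 fit.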
With `N#Cc1cc(Cl)cc(Oc2c(C(F)(F)F)ncn(Cc3cc(C4CC4)c(=O)[nH]n3)c2=O)c1` [Example 66, 3-chloro-5-((1-((5-cyclopropyl-6-oxo-1,6-dihydropyridazin-3-yl)methyl)-6-oxo-4-(trifluoromethyl)-1,6-dihydropyrimidin-5-yl)oxy)benzonitrile], the IC50 was determined as 0.007 µM.

As to `CS(=O)(=O)c1ccc(-c2cc(Cn3cnc(C(F)(F)F)c(Oc4cc(Cl)cc(C#N)c4)c3=O)n[nH]c2=O)cc1` [Example 67, 3-chloro-5-((1-((5-(4-(methylsulfonyl)phenyl)-6-oxo-1,6-dihydropyridazin-3-yl)methyl)-6-oxo-4-(trifluoromethyl)-1,6-dihydropyrimidin-5-yl)oxy)benzonitrile], the IC50 worked out at 0.012 µM. Then `N#Cc1cc(Cl)cc(Oc2c(C(F)(F)F)ncn(Cc3cc(-c4ccc(C(O)C(F)F)cc4)c(=O)[nH]n3)c2=O)c1` (centres unmarked) [Example 69, 3-chloro-5-((1-((5-(4-(2,2-difluoro-1-hydroxyethyl)phenyl)-6-oxo-1,6-dihydropyridazin-3-yl)methyl)-6-oxo-4-(trifluoromethyl)-1,6-dihydropyrimidin-5-yl)oxy)benzonitrile], with 0.01 µM. Then `CS(=O)(=O)c1cccc(-c2cc(Cn3cnc(C(F)(F)F)c(Oc4cc(Cl)cc(C#N)c4)c3=O)n[nH]c2=O)c1` [Example 70, 3-chloro-5-((1-((5-(3-(methylsulfonyl)phenyl)-6-oxo-1,6-dihydropyridazin-3-yl)methyl)-6-oxo-4-(trifluoromethyl)-1,6-dihydropyrimidin-5-yl)oxy)benzonitrile], with 0.015 µM. Then `N#Cc1cc(Cl)cc(Oc2c(C(F)(F)F)ncn(Cc3cc(-c4cn[nH]c4)c(=O)[nH]n3)c2=O)c1` [Example 71, 3-chloro-5-((6-oxo-1-((6-oxo-5-(1H-pyrazol-4-yl)-1,6-dihydropyridazin-3-yl)methyl)-4-(trifluoromethyl)-1,6-dihydropyrimidin-5-yl)oxy)benzonitrile], with 0.005 µM.

Take `Cn1cc(-c2cc(Cn3cnc(C(F)(F)F)c(Oc4cc(Cl)cc(C#N)c4)c3=O)n[nH]c2=O)cn1` [Example 72, 3-chloro-5-((1-((5-(1-methyl-1H-pyrazol-4-yl)-6-oxo-1,6-dihydropyridazin-3-yl)methyl)-6-oxo-4-(trifluoromethyl)-1,6-dihydropyrimidin-5-yl)oxy)benzonitrile]: the IC50 worked out at 0.007 µM. Then `N#Cc1cc(Cl)cc(Oc2c(C(F)(F)F)ncn(Cc3cc(-c4cccnc4)c(=O)[nH]n3)c2=O)c1` [Example 73, 3-chloro-5-((6-oxo-1-((6-oxo-5-(pyridin-3-yl)-1,6-dihydropyridazin-3-yl)methyl)-4-(trifluoromethyl)-1,6-dihydropyrimidin-5-yl)oxy)benzonitrile], with 0.011 µM; and `COc1ccc(-c2cc(Cn3cnc(C(F)(F)F)c(Oc4cc(Cl)cc(C#N)c4)c3=O)n[nH]c2=O)cn1` [Example 74], with 0.017 µM. `N#Cc1ccc(-c2cc(Cn3cnc(C(F)(F)F)c(Oc4cc(Cl)cc(C#N)c4)c3=O)n[nH]c2=O)cc1` [Example 75, 3-chloro-5-((1-((5-(4-cyanophenyl)-6-oxo-1,6-dihydropyridazin-3-yl)methyl)-6-oxo-4-(trifluoromethyl)-1,6-dihydropyrimidin-5-yl)oxy)benzonitrile]: the IC50 worked out at 0.02 µM. Then `Cn1nccc1-c1cc(Cn2cnc(C(F)(F)F)c(Oc3cc(Cl)cc(C#N)c3)c2=O)n[nH]c1=O` [Example 76, 3-chloro-5-((1-((5-(1-methyl-1H-pyrazo1-5-yl)-6-oxo-1,6-dihydropyridazin-3-yl)methyl)-6-oxo-4-(trifluoromethyl)-1,6-dihydropyrimidin-5-yl)oxy)benzonitrile], with 0.099 µM; and `N#Cc1cc(Cl)cc(Oc2c(C(F)(F)F)ncn(Cc3cc(-c4ccc(F)nc4)c(=O)[nH]n3)c2=O)c1` [Example 78, 3-chloro-5-((1-((5-(6-fluoropyridin-3-yl)-6-oxo-1,6-dihydropyridazin-3-yl)methyl)-6-oxo-4-(trifluoromethyl)-1,6-dihydropyrimidin-5-yl)oxy)benzonitrile], with 0.006 µM; and `N#Cc1cc(Cl)cc(Oc2c(C(F)(F)F)ncn(Cc3cc(-c4ccncc4)c(=O)[nH]n3)c2=O)c1` [Example 81, 3-chloro-5-((6-oxo-1-((6-oxo-5-(pyridin-4-yl)-1,6-dihydropyridazin-3-yl)methyl)-4-(trifluoromethyl)-1,6-dihydropyrimidin-5-yl)oxy)benzonitrile], with 0.009 µM. As for `N#Cc1cc(Cl)cc(Oc2c(C(F)(F)F)ncn(Cc3cc(-c4cncc(F)c4)c(=O)[nH]n3)c2=O)c1` [Example 82, 3-chloro-5-((1-((5-(5-fluoropyridin-3-yl)-6-oxo-1,6-dihydropyridazin-3-yl)methyl)-6-oxo-4-(trifluoromethyl)-1,6-dihydropyrimidin-5-yl)oxy)benzonitrile], the IC50 was 0.007 µM. Consider `Cc1ccc(-c2cc(Cn3cnc(C(F)(F)F)c(Oc4cc(Cl)cc(C#N)c4)c3=O)n[nH]c2=O)cn1` [Example 83, 3-chloro-5-((1-((5-(6-methylpyridin-3-yl)-6-oxo-1,6-dihydropyridazin-3-yl)methyl)-6-oxo-4-(trifluoromethyl)-1,6-dihydropyrimidin-5-yl)oxy)benzonitrile], for which the IC50 is 0.014 µM. As for `N#Cc1cc(Cl)cc(Oc2c(C(F)(F)F)ncn(Cc3cc(-c4cncc(C#N)c4)c(=O)[nH]n3)c2=O)c1` [Example 84, 5-(6-((5-(3-chloro-5-cyanophenoxy)-6-oxo-4-(trifluoromethyl)pyrimidin-1(6H)-yl)methyl)-3-oxo-2,3-dihydropyridazin-4-yl)nicotinonitrile], the IC50 is 0.027 µM. Then `COc1cncc(-c2cc(Cn3cnc(C(F)(F)F)c(Oc4cc(Cl)cc(C#N)c4)c3=O)n[nH]c2=O)c1` [Example 85, 3-chloro-5-((1-((5-(5-methoxypyridin-3-yl)-6-oxo-1,6-dihydropyridazin-3-yl)methyl)-6-oxo-4-(trifluoromethyl)-1,6-dihydropyrimidin-5-yl)oxy)benzonitrile], with 0.014 µM; and `N#Cc1cc(Cl)cc(Oc2c(C(F)(F)F)ncn(Cc3cc(-c4ccc(Cl)nc4)c(=O)[nH]n3)c2=O)c1` [Example 86, 3-chloro-5-((1-((5-(6-chloropyridin-3-yl)-6-oxo-1,6-dihydropyridazin-3-yl)methyl)-6-oxo-4-(trifluoromethyl)-1,6-dihydropyrimidin-5-yl)oxy)benzonitrile], with 0.006 µM. On to `N#Cc1cc(Cl)cc(Oc2c(C(F)(F)F)ncn(Cc3cc(-c4cccnc4F)c(=O)[nH]n3)c2=O)c1` [Example 87, 3-chloro-5-((1-((5-(2-fluoropyridin-3-yl)-6-oxo-1,6-dihydropyridazin-3-yl)methyl)-6-oxo-4-(trifluoromethyl)-1,6-dihydropyrimidin-5-yl)oxy)benzonitrile], for which the IC50 was found to be 0.018 µM. Then `N#Cc1cc(Cl)cc(Oc2c(C(F)(F)F)ncn(Cc3cc(-c4cnc5ccccc5c4)c(=O)[nH]n3)c2=O)c1` [Example 88, 3-chloro-5-((6-oxo-1-((6-oxo-5-(quinolin-3-yl)-1,6-dihydropyridazin-3-yl)methyl)-4-(trifluoromethyl)-1,6-dihydropyrimidin-5-yl)oxy)benzonitrile], with 0.017 µM; and `N#Cc1cc(Cl)cc(Oc2c(C(F)(F)F)ncn(Cc3cc(-c4ccc(C(N)C(F)(F)F)cc4)c(=O)[nH]n3)c2=O)c1` (centres unmarked) [Example 89, 3-((1-((5-(4-(1-amino-2,2,2-trifluoroethyl)phenyl)-6-oxo-1,6-dihydropyridazin-3-yl)methyl)-6-oxo-4-(trifluoromethyl)-1,6-dihydropyrimidin-5-yl)oxy)-5-chlorobenzonitrile], with 0.018 µM. Then `N#Cc1cc(Cl)cc(Oc2c(C(F)(F)F)ncn(Cc3cc(Br)c(=O)[nH]n3)c2=O)c1` [Example 90, 3-((1-((5-bromo-6-oxo-1,6-dihydropyridazin-3-yl)methyl)-6-oxo-4-(trifluoromethyl)-1,6-dihydropyrimidin-5-yl)oxy)-5-chlorobenzonitrile], with 0.006 µM; and `N#Cc1cc(Cl)cc(Oc2c(C(F)(F)F)ncn(Cc3cc(Cl)c(=O)[nH]n3)c2=O)c1` [Example 91, 3-chloro-5-((1-((5-chloro-6-oxo-1,6-dihydropyridazin-3-yl)methyl)-6-oxo-4-(trifluoromethyl)-1,6-dihydropyrimidin-5-yl)oxy)benzonitrile], with 0.006 µM; and `CN(C)c1cc(Cn2cnc(C(F)(F)F)c(Oc3cc(Cl)cc(C#N)c3)c2=O)n[nH]c1=O` [Example 92, 3-chloro-5-((1-((5-(dimethylamino)-6-oxo-1,6-dihydropyridazin-3-yl)methyl)-6-oxo-4-(trifluoromethyl)-1,6-dihydropyrimidin-5-yl)oxy)benzonitrile], with 0.006 µM.

For `N#Cc1cc(Cl)cc(Oc2c(C(F)(F)F)ncn(Cc3cc(-n4cccn4)c(=O)[nH]n3)c2=O)c1` [Example 93, 3-chloro-5-((6-oxo-1-((6-oxo-5-(1H-pyrazol-1-yl)-1,6-dihydropyridazin-3-yl)methyl)-4-(trifluoromethyl)-1,6-dihydropyrimidin-5-yl)oxy)benzonitrile], the IC50 was 0.011 µM. For `N#Cc1cc(Cl)cc(Oc2c(C(F)(F)F)ncn(Cc3cc(-n4ccnn4)c(=O)[nH]n3)c2=O)c1` [Example 94, 3-chloro-5-((6-oxo-1-((6-oxo-5-(1H-1,2,3-triazol-1-yl)-1,6-dihydropyridazin-3-yl)methyl)-4-(trifluoromethyl)-1,6-dihydropyrimidin-5-yl)oxy)benzonitrile] the value was 0.048 µM.

Regarding `N#Cc1cc(Cl)cc(Oc2c(C(F)(F)F)ncn(Cc3cc(C#N)c(=O)[nH]n3)c2=O)c1` [Example 95, 6-((5-(3-chloro-5-cyanophenoxy)-6-oxo-4-(trifluoromethyl)pyrimidin-1(6H)-yl)methyl)-3-oxo-2,3-dihydropyridazine-4-carbonitrile], the IC50 came out at 0.008 µM.
